Test results as given in patent US11286228B2, “Stilbene derivative and method for preparing same” (Ozchela Inc., priority 2016, dated 2022).
pEC50, pIC50: −log10 of the molar value. Like-named read-outs stand apart in the source and are kept apart here.

Key:
hepatitis C virus = assay: Antiviral activity in HCV replicon cells (Renilla luciferase); format: cell-based
Protocol: The antiviral activity of the stilbene derivatives on hepatitis C virus was measured. The replicon cells that stably replicate the hepatitis C virus genome were attached to a culture plate and cultured in a CO2 incubator at 37° C. for 24 hr. The replicon cells cultured for one day were washed with a PBS solution, treated with the compounds of the present invention, and then cultured for 72 hr. The stilbene derivative-treated replicon cells were washed with a cold PBS solution and added with 20 μL of a cell lysis solution so that the cells were lysed in ice for 20 min. 100 μL of a Renilla luciferase substrate was added thereto, after which the luminescence thereof was measured and thus the amount of the hepatitis C virus genome was estimated. The amount of the hepatitis C virus genome in the stilbene derivative-treated replicon cells according to the present invention relative to the amount of the hepatitis C virus genome in dimethylsulfoxide (DMSO)-treated replicon cells is shown.
Compounds 1 to 155 of Tables 1 to 10 may be grouped as follows based on the antiviral activity (EC50) values: […]

cyclophilin = assay: Cis-trans isomerase inhibitory activity (chymotrypsin-coupled Suc-AAPF-pNA cleavage, absorbance 390 nm); format: biochemical
From the text: Chymotrypsin cleaves a trans-type alanine-proline peptide bond. When Suc-AAPF-pNA (a peptide substrate) and chymotrypsin are mixed, the trans-type peptide substrate is cleaved and the cis-type peptide substrate remains. The remaining cis-type peptide substrate is converted into a trans form by a cis-trans isomerase and is then cleaved again by chymotrypsin. When the cis-trans isomerase is present, chymotrypsin is able to cleave a larger amount of trans-type peptide substrate within a predetermined period of time, from which the activity of the cis-trans isomerase may be determined. The amount of the cleaved trans-type peptide substrate is measured using absorbance at 390 nm. Cyclophilin has cis-trans isomerase activity, and accelerates the cleavage of trans-type peptide substrate by chymotrypsin. When the stilbene derivatives of the present invention were treated together with cyclophilin, the cleavage of the peptide substrate by chymotrypsin was not observed to accelerate. Thereby, the stilbene derivatives of the invention can be concluded to inhibit the activity of cyclophilin.

[1] = system: mitochondria obtained from hepatocytes; assay: Inhibitory activity on calcium-induced mitochondrial swelling (absorbance 520 nm)
From the text: Cyclophilin is a key protein for forming permeability transition pores (PTP) in mitochondria. When permeability transition pores are formed, mitochondria swell, whereby the outer membrane thereof ruptures and thus cell death progresses. Such mitochondrial dysfunction causes many diseases including neurodegenerative diseases, cancer, and the like. Cyclosporine, a known cyclophilin inhibitor, is capable of preventing the formation of permeability transition pores to thus suppress mitochondrial swelling.
The mitochondrial swelling test was performed as follows. Specifically, the hepatocytes were disrupted using a Dounce tissue grinder. The disrupted cells were centrifuged at 700×g for 10 min and the supernatant was transferred into a new tube. The supernatant was centrifuged at 12,000×g for 15 min, thereby obtaining mitochondria.
When the extracted mitochondria were added with calcium, they swelled, which may be observed by measuring the absorbance at 520 nm. The stilbene derivatives are effective at inhibiting mitochondrial swelling due to calcium.
The activity of Compounds 1 to 155 of Tables 1 to 10 on inhibiting mitochondrial swelling may be determined based on IC50 values, and may be grouped as follows: […]

[2] = Hepatitis C virus, HCV replicon cells, 72 hr, Renilla luciferase, relative to DMSO, read-out: Test Example 3: antiviral activity (EC50)
[3] = cyclophilin, chymotrypsin, Suc-AAPF-pNA, read-out: Test Example 1: cis-trans isomerase inhibitory activity (IC50)
[4] = Hepatocyte, calcium-induced swelling of extracted mitochondria, read-out: Test Example 4: inhibiting mitochondrial swelling (IC50)
[5] = Hepatitis C virus, HCV replicon cells, read-out: Test Example 3: antiviral activity (EC50) group
[6] = read-out: Test Example 1: cis-trans isomerase inhibitory activity (IC50) group
[7] = Hepatocyte, read-out: Test Example 4: activity on inhibiting mitochondrial swelling (IC50) group
[8] = HCV replicon cells, 72 hr, Renilla luciferase, relative to DMSO, read-out: Test Example 3: antiviral activity (EC50)
[9] = calcium-induced swelling of extracted mitochondria, read-out: Test Example 4: inhibiting mitochondrial swelling (IC50)

Row | Structure (SMILES) | pEC50 (hepatitis C virus; [2]) | pIC50 (cyclophilin; [3]) | pIC50 [1, 4] | other results
1 | N#CC(=Cc1ccccc1N1CCCCC1)c1ccc([N+](=O)[O-])cc1 [Compound 29] | 4.30 to 5.30 | 5.70 to 6.70 | 3.30 to 4.30 | –
2 | CCCCCOC(=O)c1ccccc1C=C(N)c1ccc(CC(C)(C)C)cc1 [Compound 103] | 5.30 to 6.30 | 6.70 to 7.70 | 4.30 to 5.30 | –
3 | Cc1cccc(C(=O)O)c1C=Cc1ccc(CC(C)(C)C)cc1 [Compound 152] | – | – | – | pEC50 (hepatitis C virus; [5]): > 6.30; pIC50 (cyclophilin; [6]): ≥ 7.70; pIC50 [1, 7]: > 5.30
4 | COC(=O)c1ccccc1C=Cc1ccc(CC(C)C)cc1 [Compound 129] | 5.30 to 6.30 | 6.70 to 7.70 | 4.30 to 5.30 | –
5 | N#CC(=Cc1ccccc1C(=O)O)c1ccc(CC2CC2)cc1 [Compound 61] | > 6.30 | ≥ 7.70 | > 5.30 | –
6 | CCc1ccc(C(C#N)=Cc2ccccc2N(C)C)cc1 [Compound 3] | – | 5.70 to 6.70 | – | pEC50 (hepatitis C virus; [8]): 4.30 to 5.30; pIC50 [1, 9]: 3.30 to 4.30
7 | CC(C)(C)Cc1ccc(C(N)=Cc2ccccc2C(=O)OCC2CCCCC2)cc1 [Compound 105] | 5.30 to 6.30 | 6.70 to 7.70 | 4.30 to 5.30 | –
8 | CC(C)(C)Cc1ccc(C=Cc2ccc(N)cc2C(=O)O)cc1 [Compound 138] | > 6.30 | ≥ 7.70 | > 5.30 | –
9 | CCc1ccccc1C=C(C#N)c1ccc([N+](=O)[O-])cc1 [Compound 22] | 4.30 to 5.30 | 5.70 to 6.70 | 3.30 to 4.30 | –
10 | CC(C)(C)Cc1ccc(C(F)=Cc2ccccc2C(=O)OCc2ccccc2)cc1 [Compound 120] | > 6.30 | ≥ 7.70 | > 5.30 | –
11 | CC(C)c1ccc(C(C#N)=Cc2ccccc2Cl)cc1 [Compound 4] | 4.30 to 5.30 | 5.70 to 6.70 | 3.30 to 4.30 | –
12 | CCC(C)Oc1ccccc1C=C(C#N)c1ccc([N+](=O)[O-])cc1 (stereo not drawn) [Compound 26] | 4.30 to 5.30 | 5.70 to 6.70 | 3.30 to 4.30 | –
13 | CCc1ccc(C(C#N)=Cc2ccccc2C(=O)O)cc1 [Compound 2] | – | 5.70 to 6.70 | – | pEC50 (hepatitis C virus; [8]): 4.30 to 5.30; pIC50 [1, 9]: 3.30 to 4.30
14 | CCCCOC(=O)c1ccccc1C=C(N)c1ccc(CC2CCCCC2)cc1 [Compound 110] | 5.30 to 6.30 | 6.70 to 7.70 | 4.30 to 5.30 | –
15 | CC(C)(C)Cc1ccc(C=Cc2ccccc2C(=O)O)cc1 [Compound 134] | > 6.30 | ≥ 7.70 | > 5.30 | –
16 | COC(=O)c1ccccc1C=Cc1ccc(Cc2ccccc2)cc1 [Compound 128] | – | 6.70 to 7.70 | 4.30 to 5.30 | pEC50 (hepatitis C virus; Hepatitis C virus, 72 h, read-out: Test Example 3: antiviral activity (EC50)): 5.30 to 6.30
17 | N#CC(=Cc1ccccc1N1CCOCC1)c1ccc([N+](=O)[O-])cc1 [Compound 30] | 4.30 to 5.30 | 5.70 to 6.70 | 3.30 to 4.30 | –
18 | CC(C)(C)Cc1ccc(C=Cc2ccc(O)cc2C(=O)O)cc1 [Compound 136] | > 6.30 | ≥ 7.70 | > 5.30 | –
19 | Cc1ccc(C(=O)O)c(C=Cc2ccc(CC(C)(C)C)cc2)c1 [Compound 155] | – | – | – | pEC50 (hepatitis C virus; [5]): 5.30 to 6.30; pIC50 (cyclophilin; [6]): 6.70 to 7.70; pIC50 [1, 7]: 4.30 to 5.30
20 | N#CC(=Cc1ccccc1CCc1ccccc1)c1ccc([N+](=O)[O-])cc1 [Compound 38] | 5.30 to 6.30 | 6.70 to 7.70 | 4.30 to 5.30 | –
21 | CC(C)c1ccccc1C=C(C#N)c1ccc([N+](=O)[O-])cc1 [Compound 23] | 4.30 to 5.30 | 5.70 to 6.70 | 3.30 to 4.30 | –
22 | CC(=Cc1ccccc1C(=O)OC(C)C)c1ccc(CC(C)(C)C)cc1 [Compound 89] | 5.30 to 6.30 | 6.70 to 7.70 | 4.30 to 5.30 | –
23 | CCCCCOC(=O)c1ccccc1C=C(C)c1ccc(CC(C)(C)C)cc1 [Compound 88] | 5.30 to 6.30 | 6.70 to 7.70 | 4.30 to 5.30 | –
24 | Cc1ccc(C(C#N)=Cc2ccccc2C(=O)O)cc1C [Compound 13] | – | 5.70 to 6.70 | – | pEC50 (hepatitis C virus; [8]): 4.30 to 5.30; pIC50 [1, 9]: 3.30 to 4.30
